Measurements reported in PMC4258814, “Differences between murine arylamine N-acetyltransferase type 1 and human arylamine N-acetyltransferase type 2 defined by substrate specificity and inhibitor binding” (BMC Pharmacology & Toxicology, 2014).
Changes are numbered by the printed parent chain.

Key:
(MOUSE)NAT2*1 = biological target: T1, (MOUSE)NAT2*1 (Mus musculus, UniProt P50295); experiment: Substrate specific N-acetylation profile; type: biochemical; details: substrate 500 μM, relative to substrate with highest specific activity (100%), mean of 3 ± SD
T1 construct: made in house
T1 sequence (P50295 1-290): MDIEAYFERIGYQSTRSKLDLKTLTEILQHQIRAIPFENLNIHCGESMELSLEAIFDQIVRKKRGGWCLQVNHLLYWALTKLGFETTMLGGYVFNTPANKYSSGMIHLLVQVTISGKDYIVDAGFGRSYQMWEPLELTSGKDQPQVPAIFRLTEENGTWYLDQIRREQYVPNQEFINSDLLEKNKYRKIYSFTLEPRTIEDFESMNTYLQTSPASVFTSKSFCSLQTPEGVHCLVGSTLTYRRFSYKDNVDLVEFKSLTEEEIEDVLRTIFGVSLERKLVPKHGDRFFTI

(MOUSE)NAT2_F125S = biological target: T2, (MOUSE)NAT2_F125S (Mus musculus, UniProt P50295, F125S); experiment: Substrate specific N-acetylation profile; type: biochemical; details: (MOUSE)NAT2 F125S; substrate 500 μM; relative to substrate with highest specific activity (100%); mean of 3 ± SD
T2 construct: His tag (only implied by Ni-NTA purification) (cleaved yes); made in house; host or cells: E. coli Rosetta(DE3)pLysS
T2 sequence (P50295 1-290 F125S): T1 sequence (P50295 1-290) with F125S

(MOUSE)NAT2_R127G = biological target: T3, (MOUSE)NAT2_R127G (Mus musculus, UniProt P50295, R127G); experiment: Substrate specific N-acetylation profile; type: biochemical; details: (MOUSE)NAT2 R127G; substrate 500 μM; relative to substrate with highest specific activity (100%); mean of 3 ± SD
T3 construct: made in house
T3 sequence (P50295 1-290 R127G): T1 sequence (P50295 1-290) with R127G

(MOUSE)NAT2_R127L = biological target: T4, (MOUSE)NAT2_R127L (Mus musculus, UniProt P50295, R127L); experiment: Substrate specific N-acetylation profile; type: biochemical; details: for % specific activity values: (MOUSE)NAT2 R127L, substrate 500 μM, relative to substrate with highest specific activity (100%), mean of 3 ± SD
T4 construct: made in house
T4 sequence (P50295 1-290 R127L): T1 sequence (P50295 1-290) with R127L

(MOUSE)NAT1*1 = biological target: T5, (MOUSE)NAT1*1 (Mus musculus, UniProt P50294); experiment: Substrate specific N-acetylation profile; type: biochemical; details: for % specific activity values: substrate 500 μM, relative to substrate with highest specific activity (100%), mean of 3 ± SD
T5 construct: The open reading frame of (MOUSE)Nat1*1 [32] was subcloned; hexa-His (N, cleaved yes); made in house; host or cells: Escherichia coli BL21(DE3)CodonPlus-RIL
T5 sequence (P50294 1-290): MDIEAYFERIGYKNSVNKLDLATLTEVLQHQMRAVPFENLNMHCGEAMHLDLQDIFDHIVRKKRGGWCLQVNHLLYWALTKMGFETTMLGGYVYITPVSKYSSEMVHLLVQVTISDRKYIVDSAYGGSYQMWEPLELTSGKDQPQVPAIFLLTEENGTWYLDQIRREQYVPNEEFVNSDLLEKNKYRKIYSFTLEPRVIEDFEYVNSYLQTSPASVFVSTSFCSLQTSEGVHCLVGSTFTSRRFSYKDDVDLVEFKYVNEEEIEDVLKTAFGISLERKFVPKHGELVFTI

(HUMAN)NAT1*4 = system: (HUMAN)NAT1*4; parameters: method as in PMID 15627487, PMID 18280460; details: substrate 500 μM, relative to substrate with highest specific activity (100%), mean of 3 ± SD, ref [8], [22]; cited from earlier work
(MESAU)NAT2*1 = system: (MESAU)NAT2*1; parameters: method as in PMID 15627487, PMID 18280460; details: substrate 500 μM, relative to substrate with highest specific activity (100%), mean of 3 ± SD, ref [8], [22]; cited from earlier work
(HUMAN)NAT2*4 = biological target: T6, (HUMAN)NAT2*4 (Homo sapiens, UniProt P11245); parameters: method as in PMID 15627487, PMID 18280460; details: substrate 500 μM, relative to substrate with highest specific activity (100%), mean of 3 ± SD, ref [8], [22]; cited from earlier work
T6 construct: made in house
T6 sequence (P11245 1-290): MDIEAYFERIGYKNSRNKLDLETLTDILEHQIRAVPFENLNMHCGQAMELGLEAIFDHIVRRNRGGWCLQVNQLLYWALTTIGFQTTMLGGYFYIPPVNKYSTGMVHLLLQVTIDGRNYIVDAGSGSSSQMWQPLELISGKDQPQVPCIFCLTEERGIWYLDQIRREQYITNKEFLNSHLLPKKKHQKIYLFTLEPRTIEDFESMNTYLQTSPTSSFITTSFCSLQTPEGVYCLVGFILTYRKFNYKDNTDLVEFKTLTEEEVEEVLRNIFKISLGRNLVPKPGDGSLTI

[1] = ref [56]–[61], cited from earlier work

| SMILES | % specific activity values ((MOUSE)NAT2*1) [%] | % specific activity values ((MOUSE)NAT2_F125S) [%] | % specific activity values ((MOUSE)NAT2_R127G) [%] | % specific activity values ((MOUSE)NAT2_R127L) [%] | % specific activity values ((MOUSE)NAT1*1) [%] | % specific activity values ((HUMAN)NAT1*4) [%] | % specific activity values ((MESAU)NAT2*1) [%] | % specific activity values ((HUMAN)NAT2*4) [%] | pKa(H) (NH3^+) [1] | pKa(H) (sulfonamide) [1] | pKaH of acetyl acceptor amine ([1]; as summarised in text from Table S1) | pKa(H) (α-COOH) [1] | pKa(H) (γ-COOH) [1] | Maximal specific activity ((MOUSE)NAT1*1; best substrate, 500 μM) [µM/s/mg] | pKa(H) (NH2^+-NH3^+) [1] | pKa(H) (NH-NH3^+) [1] | pKa(H) (pyridine) [1] | Maximal specific activity ((MOUSE)NAT2_R127L; (MOUSE)NAT2_R127L, best substrate, 500 μM) [µM/s/mg] |
| --- | --- | --- | --- | --- | --- | --- | --- | --- | --- | --- | --- | --- | --- | --- | --- | --- | --- | --- |
| Cc1cc(C)nc(NS(=O)(=O)c2ccc(N)cc2)n1 [SMZ, sulfamethazine] | 4 ± 1 | 1 ± 1 | 19 ± 2 | 3 ± 1 | 88 ± 6 | 1 ± 1 | 1 ± 1 | 46 ± 1 | 2.4 | 7.4 |  |  |  |  |  |  |  |  |
| Nc1ccc(C(=O)N[C@@H](CCC(=O)O)C(=O)O)cc1 [4ABglu, 4-aminobenzoyl glutamate] | 87 ± 1 | 19 ± 1 | 9 ± 1 | 8 ± 1 | 8 ± 7 | 20 ± 1 | 57 ± 3 | 3 ± 1 | 2.7 |  | < 3 | 3.6 | 4.7 |  |  |  |  |  |
| Nc1ccc(Oc2ccccc2)cc1 [POA, 4-phenoxyaniline] | 20 ± 2 | 62 ± 2 | 67 ± 1 | 61 ± 2 | 6 ± 1 | 17 ± 7 | 22 ± 1 | 62 ± 11 | 4.36 (NH3^+) |  |  |  |  |  |  |  |  |  |
| NNC(=O)c1ccncc1 [INH, isoniazid] | 2 ± 2 | 38 ± 2 | 63 ± 10 | 76 ± 14 | 100 ± 6 | 0 ± 2 | 1 ± 1 | 62 ± 2 |  |  |  |  |  | 104 | 2.0 | 3.9 | 10.8 |  |
| Nc1ccc(I)cc1 [4IA, 4-iodoaniline] | 72 ± 3 | 69 ± 2 | 97 ± 1 | 74 ± 8 | 28 ± 3 | 63 ± 1 | 81 ± 1 | 65 ± 2 | 3.8 (NH3^+) |  |  |  |  |  |  |  |  |  |
| COc1ccc(N)cc1OC [4AV, 4-aminoveratrole] | 90 ± 1 | 90 ± 1 | 66 ± 3 | 100 ± 10 | 28 ± 6 | 25 ± 2 | 32 ± 1 | 57 ± 3 | 4.7 (NH3^+) |  |  |  |  |  |  |  |  | 82.5 |
| NNc1nncc2ccccc12 [HDZ, hydralazine] | 8 ± 2 | 19 ± 1 | 100 ± 2 | 95 ± 1 | 68 ± 6 | 2 ± 1 | 3 ± 1 | 100 ± 1 |  |  |  |  |  |  |  |  |  |  |
